Legend:
human V1a receptor = human V1a receptor (Homo sapiens, UniProt P37288); assay: Cellular in vitro assay for determining vasopressin receptor activity, V1a receptor cell line (photoprotein luminescence); format: cell-based; details: for IC50: CHO cell line transfected with the human V1a receptor, agonist [Arg8]-vasopressin at EC50 concentration, read-out: IC50 hV1a; for ratio IC50 hV2/hV1a: selectivity ratio of the cellular IC50 values
Summary of the method: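 CHO K1 cells stably expressing human V1a receptor with aequorin photoprotein, loaded overnight with coelenterazine. Compounds preincubated 10 min at various concentrations, then challenged with [Arg^8]-vasopressin at EC50 concentration. Calcium-driven luminescence read immediately; IC50 values derived.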

human V2 receptor = molecular target: T1, human V2 receptor (Homo sapiens, UniProt P30518); assay: Cellular in vitro assay for determining vasopressin receptor activity, V2 receptor cell line (CRE-luciferase); format: cell-based; details: CHO cell line transfected with the human V2 receptor; agonist [Arg8]-vasopressin at EC50 concentration; read-out: IC50 hV2
T1 construct: expressed in transfected cells; host or cells: CHO K1 (ATCC) expressing firefly luciferase under a CRE-responsive promoter
T1 sequence (P30518 whole entry): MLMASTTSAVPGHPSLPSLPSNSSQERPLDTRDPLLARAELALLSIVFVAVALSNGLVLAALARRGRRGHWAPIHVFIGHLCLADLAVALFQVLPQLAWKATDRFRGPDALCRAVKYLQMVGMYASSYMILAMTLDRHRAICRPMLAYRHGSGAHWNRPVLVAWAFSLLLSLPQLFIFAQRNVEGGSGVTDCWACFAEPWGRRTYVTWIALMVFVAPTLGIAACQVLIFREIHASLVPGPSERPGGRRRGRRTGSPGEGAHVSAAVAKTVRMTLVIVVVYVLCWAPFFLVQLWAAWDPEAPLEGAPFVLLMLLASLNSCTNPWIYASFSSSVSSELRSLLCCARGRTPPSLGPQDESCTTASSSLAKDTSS

Chain of human V1a receptor (P37288 whole entry): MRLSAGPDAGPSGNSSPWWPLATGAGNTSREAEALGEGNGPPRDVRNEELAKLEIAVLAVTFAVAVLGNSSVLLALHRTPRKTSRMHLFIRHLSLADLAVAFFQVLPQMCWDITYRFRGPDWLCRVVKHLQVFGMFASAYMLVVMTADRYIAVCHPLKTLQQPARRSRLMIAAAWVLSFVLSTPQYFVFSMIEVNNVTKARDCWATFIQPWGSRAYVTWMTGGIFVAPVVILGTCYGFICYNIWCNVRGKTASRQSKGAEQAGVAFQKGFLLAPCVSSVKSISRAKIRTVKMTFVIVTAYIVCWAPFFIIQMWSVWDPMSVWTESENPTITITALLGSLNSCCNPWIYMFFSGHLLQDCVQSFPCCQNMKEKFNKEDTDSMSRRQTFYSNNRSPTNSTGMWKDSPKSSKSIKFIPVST

IC50 (human V1a receptor) [nM] | ratio IC50 hV2/hV1a (human V1a receptor) | IC50 (human V2 receptor) [nM] | Compound
0.97 | 1606.2 | 1550 | CC1(C)CN(c2nc(Cn3nc(-c4ccc(Cl)cc4)n(C[C@H](O)C(F)(F)F)c3=O)nn2-c2ncccc2Cl)CCN1 [Example 122, 5-(4-Chlorophenyl)-2-{[1-(3-chloropyridin-2-yl)-5-(3,3-dimethylpiperazin-1-yl)-1H-1,2,4-triazol-3-yl]methyl}-4-[(2S)-3,3,3-trifluoro-2-hydroxypropyl]-2,4-dihydro-3H-1,2,4-triazol-3-one]
3.9 | 31.5 | 123 | CC(C)(CNc1nc(Cn2nc(-c3ccc(Cl)cc3)n(C[C@H](O)C(F)(F)F)c2=O)nn1CCC(F)(F)F)NS(C)(=O)=O [Example 102, N-(1-{[3-({3-(4-Chlorophenyl)-5-oxo-4-[(2S)-3,3,3-trifluoro-2-hydroxypropyl]-4,5-dihydro-1H-1,2,4-triazol-1-yl}methyl)-1-(3,3,3-trifluoropropyl)-1H-1,2,4-triazol-5-yl]amino}-2-methylpropan-2-yl)methanesulfonamide]
1.6 | 11.0 | 17.7 | O=c1n(Cc2nc(N3CC(F)(F)C3)n(-c3ccccc3Cl)n2)nc(-c2ccc(Cl)cc2)n1C[C@H](O)C(F)(F)F [Example 81, 5-(4-Chlorophenyl)-2-{[1-(2-chlorophenyl)-5-(3,3-difluoroazetidin-1-yl)-1H-1,2,4-triazol-3-yl]methyl}-4-[(2S)-3,3,3-trifluoro-2-hydroxypropyl]-2,4-dihydro-3H-1,2,4-triazol-3-one]
0.33 | 2.5 | 0.82 | O=C1NCCC1Nc1nc(Cn2nc(-c3ccc(Cl)cc3)n(C[C@H](O)C(F)(F)F)c2=O)nn1-c1ccccc1Cl (mixture of isomers) [Example 16, 5-(4-Chlorophenyl)-2-{[1-(2-chlorophenyl)-5-{[2-oxopyrrolidin-3-yl]amino}-1H-1,2,4-triazol-3-yl]methyl}-4-[(2S)-3,3,3-trifluoro-2-hydroxypropyl]-2,4-dihydro-3H-1,2,4-triazol-3-one]
1.05 | 4.7 | 4.9 | CC1(O)CCN(c2nc(Cn3nc(-c4ccc(Cl)cc4)n(C[C@H](O)C(F)(F)F)c3=O)nn2-c2ccccc2Cl)C1 (mixture of isomers) [Example 29, 5-(4-Chlorophenyl)-2-({1-(2-chlorophenyl)-5-[3-hydroxy-3-methylpyrrolidin-1-yl]-1H-1,2,4-triazol-3-yl}methyl)-4-[(2S)-3,3,3-trifluoro-2-hydroxypropyl]-2,4-dihydro-3H-1,2,4-triazol-3-one]
0.22 | 5.2 | 1.12 | NC(CNc1nc(Cn2nc(-c3ccc(Cl)cc3)n(C[C@H](O)C(F)(F)F)c2=O)nn1-c1ccccc1Cl)C(F)(F)F (single isomer, unassigned) [Example 7]
0.4 | 2.6 | 1.02 | CS(=O)(=O)NCCNc1nc(Cn2nc(-c3ccc(Cl)cc3)n(C[C@H](O)C(F)(F)F)c2=O)nn1-c1ccccc1Cl [Example 24, N-(2-{[1-(2-Chlorophenyl)-3-({3-(4-chlorophenyl)-5-oxo-4-[(2S)-3,3,3-trifluoro-2-hydroxypropyl]-4,5-dihydro-1H-1,2,4-triazol-1-yl}methyl)-1H-1,2,4-triazol-5-yl]amino}ethyl)methanesulfonamide]
1.4 | 121.4 | 170 | CC(C)(O)CNc1nc(Cn2nc(-c3ccc(Cl)cc3)n(C[C@H](O)C(F)(F)F)c2=O)nn1CCC(F)(F)F [Example 110, 5-(4-Chlorophenyl)-2-({5-[(2-hydroxy-2-methylpropyl)amino]-1-(3,3,3-trifluoropropyl)-1H-1,2,4-triazol-3-yl}methyl)-4-[(2S)-3,3,3-trifluoro-2-hydroxypropyl]-2,4-dihydro-3H-1,2,4-triazol-3-one]
0.4 | 8.9 | 3.55 | O=c1n(Cc2nc(N3CCC4OCCC43)n(-c3ccccc3Cl)n2)nc(-c2ccc(Cl)cc2)n1C[C@H](O)C(F)(F)F (stereo partly drawn) [Example 38, 5-(4-Chlorophenyl)-2-{[1-(2-chlorophenyl)-5-(hexahydro-4H-furo[3,2-b]pyrrol-4-yl)-1H-1,2,4-triazol-3-yl]methyl}-4-[(2S)-3,3,3-trifluoro-2-hydroxypropyl]-2,4-dihydro-3H-1,2,4-triazol-3-one]
0.93 | 8.0 | 7.4 | O=CN1CCC(Nc2nc(Cn3nc(-c4ccc(Cl)cc4)n(C[C@H](O)C(F)(F)F)c3=O)nn2-c2ccccc2Cl)C1 (mixture of isomers) [Example 41, 3-{[1-(2-Chlorophenyl)-3-({3-(4-chlorophenyl)-5-oxo-4-[(2S)-3,3,3-trifluoro-2-hydroxypropyl]-4,5-dihydro-1H-1,2,4-triazol-1-yl}methyl)-1H-1,2,4-triazol-5-yl]amino}pyrrolidine-1-carbaldehyde]
30.5 | 12.0 | 365 | O=c1n(Cc2nc(N3CCOC(C(F)(F)F)C3)n(CCC(F)(F)F)n2)nc(-c2ccc(Cl)cc2)n1C[C@H](O)C(F)(F)F (single isomer, unassigned) [Example 104]
0.83 | 14.4 | 12 | CN(CCO)c1nc(Cn2nc(-c3ccc(Cl)cc3)n(C[C@H](O)C(F)(F)F)c2=O)nn1-c1ccccc1Cl [Example 84, 5-(4-Chlorophenyl)-2-({1-(2-chlorophenyl)-5-[(2-hydroxyethyl)(methyl)amino]-1H-1,2,4-triazol-3-yl}methyl)-4-[(2S)-3,3,3-trifluoro-2-hydroxypropyl]-2,4-dihydro-3H-1,2,4-triazol-3-one]
29.5 | 17.3 | 510 | O=C1CC[C@H](CNc2nc(Cn3nc(-c4ccc(Cl)cc4)n(C[C@H](O)C(F)(F)F)c3=O)nn2CCC(F)(F)F)N1 [Example 101, 5-(4-Chlorophenyl)-2-{[5-({[(2R)-5-oxopyrrolidin-2-yl]methyl}amino)-1-(3,3,3-trifluoropropyl)-1H-1,2,4-triazol-3-yl]methyl}-4-[(2S)-3,3,3-trifluoro-2-hydroxypropyl]-2,4-dihydro-3H-1,2,4-triazol-3-one]
0.56 | 176.9 | 99.5 | O=C1CN(c2nc(Cn3nc(-c4ccc(Cl)cc4)n(C[C@H](O)C(F)(F)F)c3=O)nn2-c2ncccc2Cl)CCN1 [Example 97, 4-[3-({3-(4-Chlorophenyl)-5-oxo-4-[(2S)-3,3,3-trifluoro-2-hydroxypropyl]-4,5-dihydro-1H-1,2,4-triazol-1-yl}methyl)-1-(3-chloropyridin-2-yl)-1H-1,2,4-triazol-5-yl]piperazin-2-one]
2.15 | 2.1 | 4.59 | O=c1n(Cc2nc(NCCO)n(-c3cccc(F)c3)n2)nc(-c2ccc(Cl)cc2)n1C[C@H](O)C(F)(F)F [Example 123, 5-(4-Chlorophenyl)-2-({1-(3-fluorophenyl)-5-[(2-hydroxyethyl)amino]-1H-1,2,4-triazol-3-yl}methyl)-4-[(2S)-3,3,3-trifluoro-2-hydroxypropyl]-2,4-dihydro-3H-1,2,4-triazol-3-one]
3.4 | 3.4 | 11.4 | O=c1n(Cc2nc(N3CCC(O)(C(F)(F)F)C3)n(-c3ccccc3Cl)n2)nc(-c2ccc(Cl)cc2)n1C[C@H](O)C(F)(F)F (single isomer, unassigned) [Example 15]
0.82 | 2.1 | 1.75 | O=c1n(Cc2nc(N3CC(O)(C(F)(F)F)C3)n(-c3ccccc3Cl)n2)nc(-c2ccc(Cl)cc2)n1C[C@H](O)C(F)(F)F [Example 36, 5-(4-Chlorophenyl)-2-({1-(2-chlorophenyl)-5-[3-hydroxy-3-(trifluoromethyl)azetidin-1-yl]-1H-1,2,4-triazol-3-yl}methyl)-4-[(2S)-3,3,3-trifluoro-2-hydroxypropyl]-2,4-dihydro-3H-1,2,4-triazol-3-one]

Compound | IC50 (human V1a receptor) [nM] | ratio IC50 hV2/hV1a (human V1a receptor) | IC50 (human V2 receptor) [nM]
NC(=O)[C@H]1CCCN1c1nc(Cn2nc(-c3ccc(Cl)cc3)n(C[C@H](O)C(F)(F)F)c2=O)nn1-c1ccccc1Cl [Example 59, 1-[1-(2-Chlorophenyl)-3-({3-(4-chlorophenyl)-5-oxo-4-[(2S)-3,3,3-trifluoro-2-hydroxypropyl]-4,5-dihydro-1H-1,2,4-triazol-1-yl}methyl)-1H-1,2,4-triazol-5-yl]-D-prolinamide] | 2.3 | 17.2 | 39.5
O=c1n(Cc2nc(N3CCS(=O)(=O)CC3)n(-c3ccccc3Cl)n2)nc(-c2ccc(Cl)cc2)n1C[C@H](O)C(F)(F)F [Example 55, 5-(4-Chlorophenyl)-2-{[1-(2-chlorophenyl)-5-(1,1-dioxidothiomorpholin-4-yl)-1H-1,2,4-triazol-3-yl]methyl}-4-[(2S)-3,3,3-trifluoro-2-hydroxypropyl]-2,4-dihydro-3H-1,2,4-triazol-3-one] | 0.39 | 67.1 | 26
O=C1CCC(Nc2nc(Cn3nc(-c4ccc(Cl)cc4)n(C[C@H](O)C(F)(F)F)c3=O)nn2-c2ccccc2Cl)CN1 (mixture of isomers) [Example 60, 5-{[1-(2-Chlorophenyl)-3-({3-(4-chlorophenyl)-5-oxo-4-[(2S)-3,3,3-trifluoro-2-hydroxypropyl]-4,5-dihydro-1H-1,2,4-triazol-1-yl}methyl)-1H-1,2,4-triazol-5-yl]amino}piperidin-2-one] | 0.44 | 12.3 | 5.4

— patent US11331314B2, “Amine substituted triazole derivatives and uses thereof” (Bayer Pharma Aktiengesellschaft, priority 2017, dated 2022)
